Measurements from patent US8093266B2, “Rho kinase inhibitors” (Boehringer Ingelheim International GmbH, priority 2007, dated 2012).
pIC50: −log10 of the molar value.

target: T1, ROCKII (1-543) kinase (Homo sapiens, UniProt O75116); experiment: Molecular assay: ROCKII (1-543) kinase activity, PKLight ATP detection (luciferin-luciferase, residual ATP); type: biochemical; details: 750 nM ATP, 500 nM peptide substrate, 7.5 nM kinase, 90 min at 28° C.; read-out: Rock2 IC50
T1 construct: ROCKII (1-543) (62,408 Da) was diluted in assay buffer to a final concentration of 7.5 nM
T1 sequence (O75116 1-543): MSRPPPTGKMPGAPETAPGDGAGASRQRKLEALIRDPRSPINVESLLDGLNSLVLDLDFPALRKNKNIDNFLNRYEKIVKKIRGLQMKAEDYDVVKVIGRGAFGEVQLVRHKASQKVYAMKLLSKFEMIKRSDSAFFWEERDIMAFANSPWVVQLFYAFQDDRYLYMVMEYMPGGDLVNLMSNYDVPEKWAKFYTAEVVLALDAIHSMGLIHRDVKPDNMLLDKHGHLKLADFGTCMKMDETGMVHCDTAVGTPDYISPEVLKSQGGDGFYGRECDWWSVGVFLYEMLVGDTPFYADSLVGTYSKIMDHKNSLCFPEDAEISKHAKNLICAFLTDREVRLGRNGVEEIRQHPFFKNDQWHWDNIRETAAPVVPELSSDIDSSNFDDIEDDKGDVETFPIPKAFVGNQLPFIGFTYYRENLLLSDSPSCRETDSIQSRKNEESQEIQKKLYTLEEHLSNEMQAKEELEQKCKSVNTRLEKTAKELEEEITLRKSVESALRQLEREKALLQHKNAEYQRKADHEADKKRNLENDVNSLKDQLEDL
Method: The activity of ROCKII (1-543) kinase was measured utilizing Cambrex PKLight ATP Detection Reagent, a homogeneous assay technology using luciferin-luciferase to quantify residual ATP. The assay was performed in 384-well low-volume, white, non-binding surface microtiter plates (Corning). The assay buffer was 25 mM HEPES, pH 7.5, 10 mM MgCl2, 50 mM KCl, 0.2% BSA, 0.01% CHAPS, 100 μM Na3VO4 and 0.5 mM DTT. Test compounds, dissolved in neat DMSO at 500 μg/mL, were serially diluted for dose response for a final starting concentration of 3 μg/mL in 1% DMSO of assay buffer. ROCKII (1-543) (62,408 Da) was diluted in assay buffer to a final concentration of 7.5 nM in a total volume of 15 μL. Positive controls were reaction mixtures containing no test compound; negative controls (blanks) were reaction mixtures containing no kinase. After 15 minutes of pre-incubation of the test compounds with the kinase, a mixture of ATP and peptide substrate ([…]) in assay buffer was added to each well for a final concentration of 750 nM ATP and 500 nM peptide, respectively. After 90 minutes of incubation of the kinase reaction at 28° C. temperature, 10 μL of PKLight ATP Detection Reagent (warmed to room temperature previously) was added to each well. The assay plate was incubated at room temperature for additional 15 minutes and then read on an Analyst in luminescence mode. Dose-response experiments for each of the test compounds were conducted in quadruplet. IC50 values of test compounds represent 50% response of the positive control from the dose-response curve.
Representative compounds of the present invention were tested for activity in this assay and all had IC50 values <10 μM. Preferred compounds have an IC50<1 μM and more preferred compounds have an IC50<0.1 μM in this assay. As examples the following data were obtained for the compounds named below: […]

Compound | pIC50
COc1ccc(C(=O)NCc2cccc(C(=O)Nc3ccc4c(c3)CCNCC4)c2)cc1OC [3,4-Dimethoxy-N-[3-(2,3,4,5-tetrahydro-1H-benzo[d]azepin-7-ylcarbamoyl)-benzyl]-benzamide] | 7.82
COc1ccc(C(=O)NCc2cccc(C(=O)Nc3cnc4c(c3)CN(C)CC4)c2)cc1OC [3,4-Dimethoxy-N-[3-(6-methyl-5,6,7,8-tetrahydro-[1,6]naphthyridin-3-ylcarbamoyl)-benzyl]-benzamide] | 7.21
COc1ccc(C(=O)NCc2cccc(C(=O)Nc3ccc4c(c3)CNC4)c2)cc1OC [N-[3-(2,3-Dihydro-1H-isoindol-5-ylcarbamoyl)-benzyl]-3,4-dimethoxy-benzamide] | 8.22
COc1ccc(C(=O)NCc2cccc(C(=O)Nc3nc4c(s3)CNCC4)c2)cc1Cl [3-Chloro-4-methoxy-N-[3-(4,5,6,7-tetrahydro-thiazolo[5,4-c]pyridin-2-ylcarbamoyl)-benzyl]-benzamide] | 8.40
COc1ccc(C(=O)NCc2cccc(NC(=O)c3nc4c(s3)CNCC4)c2)cc1OC [4,5,6,7-Tetrahydro-thiazolo[5,4-c]pyridine-2-carboxylic acid {3-[(3,4-dimethoxy-benzoylamino)-methyl]-phenyl}-amide] | 7.66
COc1ccc(C(=O)NCc2cccc(C(=O)Nc3nc4c(s3)C[C@@H](N3CCS(=O)(=O)CC3)CC4)c2)cc1OC [N-{3-[(S)-6-(1,1-Dioxo-thiomorpholin-4-yl)-4,5,6,7-tetrahydro-benzothiazol-2-ylcarbamoyl]-benzyl}-3,4-dimethoxy-benzamide] | 7.89

Now from value to compound:

pIC50 | Compound
8.70 | CCCN[C@H]1CCc2nc(NC(=O)c3cccc(CNC(=O)c4ccc(OC)c(Cl)c4)c3)sc2C1 [3-Chloro-4-methoxy-N-[3-((S)-6-propylamino-4,5,6,7-tetrahydro-benzothiazol-2-ylcarbamoyl)-benzyl]-benzamide]
6.92 | COc1ccc(C(=O)NCc2cccc(C(=O)Nc3ccc(CCN4CCCC4)cc3)c2)cc1C [4-Methoxy-3-methyl-N-{3-[4-(2-pyrrolidin-1-yl-ethyl)-phenylcarbamoyl]-benzyl}-benzamide]
9.00 | COc1ccc(C(=O)NCc2cccc(C(=O)Nc3nc4c(s3)C[C@@H](N3CCOCC3)CC4)c2)cc1OC [3,4-Dimethoxy-N-[3-((S)-6-morpholin-4-yl-4,5,6,7-tetrahydro-benzothiazol-2-ylcarbamoyl)-benzyl]-benzamide]
7.24 | COc1ccc(C(=O)NCc2cccc(C(=O)Nc3ccc(OCCN4CCOCC4)cc3)c2)cc1OC [3,4-Dimethoxy-N-{3-[4-(2-morpholin-4-yl-ethoxy)-phenylcarbamoyl]-benzyl}-benzamide]
7.00 | COCCN1CCc2ccc(NC(=O)c3cccc(CNC(=O)c4ccc(OC)c(OC)c4)c3)cc2C1 [3,4-Dimethoxy-N-{3-[2-(2-methoxy-ethyl)-1,2,3,4-tetrahydro-isoquinolin-7-ylcarbamoyl]-benzyl}-benzamide]
8.00 | CN1CCc2nc(NC(=O)c3cccc(CNC(=O)Nc4ccc(C#N)cc4)c3)sc2C1 [3-[3-(4-Cyano-phenyl)-ureidomethyl]-N-(5-methyl-4,5,6,7-tetrahydro-thiazolo[5,4-c]pyridin-2-yl)-benzamide]
9.00 | COc1ccc(C(=O)NCc2cccc(C(=O)Nc3nc4c(s3)C[C@H](N(C)C)CC4)c2)cc1OC [N-[3-((R)-6-Dimethylamino-4,5,6,7-tetrahydro-benzothiazol-2-ylcarbamoyl)-benzyl]-3,4-dimethoxy-benzamide]
7.70 | COc1ccc(C(=O)NCc2cccc(C(=O)Nc3ncc(CCN4CCN(C)CC4)s3)c2)cc1OC [3,4-Dimethoxy-N-(3-{5-[2-(4-methyl-piperazin-1-yl)-ethyl]-thiazol-2-ylcarbamoyl}-benzyl)-benzamide]
7.92 | COc1ccc(C(=O)NCc2cccc(C(=O)Nc3ccc4c(c3)CC(N)C4)c2)cc1OC (centres unmarked) [N-[3-(2-Amino-indan-5-ylcarbamoyl)-benzyl]-3,4-dimethoxy-benzamide]
7.57 | CCN1CCc2ccc(NC(=O)c3cccc(CNC(=O)c4ccc(OC)c(OC)c4)c3)cc2C1 [N-[3-(2-Ethyl-1,2,3,4-tetrahydro-isoquinolin-7-ylcarbamoyl)-benzyl]-3,4-dimethoxy-benzamide]
7.14 | CCCN[C@H]1CCc2nc(N(CCOC)C(=O)c3cccc(CNC(=O)c4ccc(OC)c(Cl)c4)c3)sc2C1 [3-Chloro-4-methoxy-N-{3-[(2-methoxy-ethyl)-((S)-6-propylamino-4,5,6,7-tetrahydro-benzothiazol-2-yl)-carbamoyl]-benzyl}-benzamide]

tested on: not given; experiment: not given; details: long term treatment; cited from earlier work

Compound | coronary constrictive remodeling | coronary stenosis
O=S(=O)(c1cccc2cnccc12)N1CCCNCC1 [fasudil] | promote a regression of coronary constrictive remodeling | progressively reduce coronary stenosis

tested on: not given; experiment: not given; details: rat stroke model; cited from earlier work

Compound | infarct size and neurologic deficit
O=S(=O)(c1cccc2cnccc12)N1CCCNCC1 [fasudil] | reduce both the infarct size and neurologic deficit
